The source of these data is patent US9403830B2, “Inhibitors of leukotriene production” (Boehringer Ingelheim International GmbH, priority 2012, dated 2016).

For assay [1], the system named is LTB4 synthesis in human whole blood. As to the kind of experiment: human whole blood (HWB) assay, inhibition of LTB4 production. Conditions: heparinized human whole blood, calcimycin 20 μM stimulation, plasma LTB4. The assay is classed as cell-based. Put shortly: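 Heparinized human whole blood preincubated with compound 15 min at 37 °C, then stimulated with 20 μM (final) calcimycin for 30 min at 37 °C. Plasma LTB4 measured by antibody-based HTRF; IC50 reported.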

For the next assay, the target named is T1, human LTA4 hydrolase (Homo sapiens, UniProt P09960).
T1 sequence (P09960 1-611): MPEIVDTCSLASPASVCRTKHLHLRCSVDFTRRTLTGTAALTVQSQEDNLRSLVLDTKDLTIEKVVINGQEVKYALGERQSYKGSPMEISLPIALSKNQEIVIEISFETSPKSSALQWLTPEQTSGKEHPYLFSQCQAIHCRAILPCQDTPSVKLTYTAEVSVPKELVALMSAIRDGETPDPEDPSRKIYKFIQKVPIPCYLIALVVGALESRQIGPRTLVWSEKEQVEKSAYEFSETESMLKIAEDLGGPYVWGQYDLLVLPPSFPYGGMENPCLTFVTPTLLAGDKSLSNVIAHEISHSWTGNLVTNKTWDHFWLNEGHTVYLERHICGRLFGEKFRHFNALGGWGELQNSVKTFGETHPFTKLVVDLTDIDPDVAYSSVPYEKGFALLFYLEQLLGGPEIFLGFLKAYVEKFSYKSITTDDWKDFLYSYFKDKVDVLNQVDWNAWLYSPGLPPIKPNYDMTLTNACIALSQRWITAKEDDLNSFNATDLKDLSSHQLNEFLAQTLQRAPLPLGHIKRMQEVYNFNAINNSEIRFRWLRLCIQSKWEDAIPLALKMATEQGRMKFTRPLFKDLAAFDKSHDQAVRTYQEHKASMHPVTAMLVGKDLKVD
Briefly: LTA4H Enzyme assay (peptidase, Arg-AMC cleavage). The assay is classed as biochemical. Particulars: LTA4H enzyme 1 nM, Arg-AMC substrate 50 μM, room temperature 1 h, fluorescence 380/460 nm. Put shortly: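 Human LTA4H (1 nM final) incubated with compound and Arg-AMC (50 μM final) in 50 mM Tris-HCl pH 7.5, 100 mM KCl, 0.5% BSA, 1 h at room temperature. Product read as AMC fluorescence (ex 380/em 460 nm); IC50 reported.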

Molecules are shown by their SMILES.

Take `CC(=O)NCCNCc1ccc2cc(Oc3ccc(-c4ccn[nH]4)cn3)ccc2n1` [Example 121, N-[2-({6-[5-(2H-Pyrazol-3-yl)-pyridin-2-yloxy]-quinolin-2-ylmethyl}-amino)-ethyl]-acetamide]: the 50% inhibitory concentration (IC50) in assay [1] turned out to be 390 nM; against human LTA4 hydrolase, 1.5 nM.
For `NC(=O)C1CCN(CC2Cc3ccc(Oc4ccc(-c5ccn[nH]5)cc4)cc3O2)CC1` (centres unmarked) [Example 144, 1-{6-[4-(2H-Pyrazol-3-yl)-phenoxy]-2,3-dihydro-benzofuran-2-ylmethyl}-piperidine-4-carboxylic acid amide], in that order: 260 nM and 0.64 nM.
For `CC(=O)NCC1CCN(CC2Cc3ccc(Oc4ccc(-c5ccn[nH]5)cn4)cc3O2)CC1` (centres unmarked) [Example 128, N-(1-{6-[5-(2H-Pyrazol-3-yl)-pyridin-2-yloxy]-2,3-dihydro-benzofuran-2-ylmethyl}-piperidin-4-ylmethyl)-acetamide], in that order: 170 nM and 0.74 nM.
With `CNC(=O)C1CCN(CCc2coc3cc(Oc4ccc(-c5ccn[nH]5)cn4)ccc23)CC1` [Example 138, 1-(2-{6-[5-(2H-Pyrazol-3-yl)-pyridin-2-yloxy]-benzofuran-3-yl}-ethyl)-piperidine-4-carboxylic acid methylamide], the figures for the half-maximal inhibitory concentration (IC50) (in assay [1]; at human LTA4 hydrolase) were 190 nM and 0.39 nM, respectively.
For `CC1(C)CCN(Cc2nc3cc(Oc4ccc(-c5ccn[nH]5)cc4)ccc3[nH]2)C1=O` [Example 234, 3,3-Dimethyl-1-{5-[4-(2H-pyrazol-3-yl)-phenoxy]-1H-benzoimidazol-2-ylmethyl}-pyrrolidin-2-one], in that order: 180 nM and 0.26 nM.
For `CN(Cc1nc2cc(Oc3ccc(-c4ccn[nH]4)cc3)ccc2[nH]1)CC1CCOCC1` [Example 159, Methyl-{5-[4-(2H-pyrazol-3-yl)-phenoxy]-1H-benzoimidazol-2-ylmethyl}-(tetrahydro-pyran-4-ylmethyl)-amine], in that order: 110 nM and 0.19 nM.
For `O[C@H]1CCN(Cc2nc3ccc(Oc4ccc(-c5ccn[nH]5)cc4)cc3[nH]2)C1` [Example 66, (S)-1-{6-[4-(2H-Pyrazol-3-yl)-phenoxy]-1H-benzoimidazol-2-ylmethyl}-pyrrolidin-3-ol], in that order: 240 nM and 0.14 nM.
In the case of `CNC(=O)C1CCN(CC2Cc3ccc(Oc4ccc(-c5ccn[nH]5)cc4)cc3O2)CC1` (centres unmarked) [Example 137, 1-{6-[4-(2H-Pyrazol-3-yl)-phenoxy]-2,3-dihydro-benzofuran-2-ylmethyl}-piperidine-4-carboxylic acid methylamide], the IC50 amounted to 190 nM in assay [1] and 0.57 nM against human LTA4 hydrolase.
For `O=C1OCCN1C1CCN(CC2Cc3ccc(Oc4ccc(-c5ccn[nH]5)cc4)cc3O2)CC1` (centres unmarked) [Example 203, 3-(1-{6-[4-(2H-Pyrazol-3-yl)-phenoxy]-2,3-dihydro-benzofuran-2-ylmethyl}-piperidin-4-yl)-oxazolidin-2-one], in that order: 200 nM and 0.77 nM.
For `O=S1(=O)CC2CC1CN2Cc1ccc2cc(Oc3ccc(-c4ccn[nH]4)cc3)ccc2n1` (centres unmarked) [Example 17, 2-(2,2-Dioxo-2-λ-6-thia-5-aza-bicyclo[2.2.1]hept-5-ylmethyl)-6-[4-(2H-pyrazol-3-yl)-phenoxy]-quinoline], in that order: 430 nM and 1.1 nM.
For `O=C1CCCCN1C1CCN(Cc2ccc3cc(Oc4ccc(-c5ccn[nH]5)cn4)ccc3n2)CC1` [Example 209, 1′-{6-[5-(2H-Pyrazol-3-yl)-pyridin-2-yloxy]-quinolin-2-ylmethyl}-[1,4′]bipiperidinyl-2-one], in that order: 220 nM and 0.66 nM.
Consider `CC(=O)N(C)C1CCN(Cc2ccc3cc(Oc4ccc(-c5ccn[nH]5)cn4)ccc3n2)CC1` [Example 37, N-Methyl-N-(1-{6-[5-(2H-pyrazol-3-yl)-pyridin-2-yloxy]-quinolin-2-ylmethyl}-piperidin-4-yl)-acetamide], for which the IC50 in assay [1] came out at 270 nM; against human LTA4 hydrolase, 0.86 nM.
For `c1cc(-c2ccc(Oc3ccc4nc(CN5CCCCCC5)ccc4c3)nc2)[nH]n1` [Example 22, 2-Azepan-1-ylmethyl-6-[5-(2H-pyrazol-3-yl)-pyridin-2-yloxy]-quinoline], in that order: 89 nM and 0.36 nM.
Take `C[C@H]1COC[C@H](C)N1Cc1nc2cc(Oc3ccc(-c4ccn[nH]4)cc3)ccc2[nH]1` [Example 55, 2-((3S,5S)-3,5-Dimethyl-morpholin-4-ylmethyl)-5-[4-(2H-pyrazol-3-yl)-phenoxy]-1H-benzoimidazole]: the figures for the IC50 (in assay [1]; against human LTA4 hydrolase) were 100 nM and 0.13 nM, respectively.
Take `CS(=O)(=O)NC1CCN(CCc2coc3cc(Oc4ccc(-c5ccn[nH]5)cn4)ccc23)CC1` [Example 141, N-[1-(2-{6-[5-(2H-Pyrazol-3-yl)-pyridin-2-yloxy]-benzofuran-3-yl}-ethyl)-piperidin-4-yl]-methanesulfonamide]: the results for the IC50 (in assay [1]; against human LTA4 hydrolase) were 200 nM and 0.35 nM, respectively.
For `c1cc(-c2ccc(Oc3ccc4nc(OCCN5CCOCC5)ccc4c3)nc2)[nH]n1` [Example 120, 2-(2-morpholin-4-yl-ethoxy)-6-[5-(2H-pyrazol-3-yl)-pyridin-2-yloxy]-quinoline], in that order: 3100 nM and 25 nM.
For `c1cc(-c2ccc(Oc3ccc4[nH]c(CNC[C@H]5CCCO5)nc4c3)cc2)[nH]n1` [Example 101, {5-[4-(2H-Pyrazol-3-yl)-phenoxy]-1H-benzoimidazol-2-ylmethyl}-[(R)-1-(tetrahydro-furan-2-yl)methyl]-amine], in that order: 190 nM and 0.55 nM.
For `CC(=O)NC1CCN(CCCn2cc3cc(Oc4ccc(-c5ccn[nH]5)cc4)ccc3n2)CC1` [Example 116, N-[1-(3-{5-[4-(2H-Pyrazol-3-yl)-phenoxy]-indazol-2-yl}-propyl)-piperidin-4-yl]-acetamide], in that order: 580 nM and 0.95 nM.
In the case of `c1cc(-c2ccc(Oc3ccc4nn(CCCN5CCOCC5)cc4c3)cc2)[nH]n1` [Example 84, 2-(3-Morpholin-4-yl-propyl)-5-[4-(2H-pyrazol-3-yl)-phenoxy]-2H-indazole], the half-maximal inhibitory concentration (IC50) in assay [1] came out at 120 nM; against human LTA4 hydrolase it was 0.36 nM.
Consider `c1cc(-c2ccc(Oc3ccc4[nH]c(CN5CCCCCC5)nc4c3)cc2)[nH]n1` [Example 163, 2-Azepan-1-ylmethyl-5-[4-(2H-pyrazol-3-yl)-phenoxy]-1H-benzoimidazole], for which the IC50 in assay [1] came out at 120 nM; against human LTA4 hydrolase it was 0.065 nM.
Take `COC[C@@H]1CCCN1Cc1nc2cc(Oc3ccc(-c4ccn[nH]4)cc3)ccc2[nH]1` [Example 173, 2-((S)-2-Methoxymethyl-pyrrolidin-1-ylmethyl)-5-[4-(2H-pyrazol-3-yl)-phenoxy]-1H-benzoimidazole]: the IC50 was found to be 130 nM in assay [1] and 0.16 nM against human LTA4 hydrolase.
As to `CC(=O)N1CC2CN(Cc3ccc4cc(Oc5ccc(-c6ccn[nH]6)cn5)ccc4n3)CC2C1` (centres unmarked) [Example 32, 1-(5-{6-[5-(2H-Pyrazol-3-yl)-pyridin-2-yloxy]-quinolin-2-ylmethyl}-hexahydro-pyrrolo[3,4-c]pyrrol-2-yl)-ethanone], the IC50 in assay [1] is 210 nM; against human LTA4 hydrolase, 0.85 nM.
For `c1cc(-c2ccc(Oc3ccc4nc(OCCN5CCOCC5)sc4c3)cc2)n[nH]1` [Example 232, 2-(2-Morpholin-4-yl-ethoxy)-6-[4-(1H-pyrazol-3-yl)-phenoxy]-benzothiazole], in that order: 160 nM and 1.4 nM.
Take `c1cc(-c2ccc(Oc3ccc4c(c3)OC(CN3CCCC3)C4)cc2)[nH]n1` (centres unmarked) [Example 218, 5-[4-(2-Pyrrolidin-1-ylmethyl-2,3-dihydro-benzofuran-6-yloxy)-phenyl]-1H-pyrazole]: the IC50 in assay [1] worked out at 110 nM; against human LTA4 hydrolase, 0.097 nM.
For `O=C(N1CCN(Cc2nc3cc(Oc4ccc(-c5ccn[nH]5)cc4)ccc3[nH]2)CC1)C(F)(F)F` [Example 57, 2,2,2-Trifluoro-1-(4-[5-[4-(2H-pyrazol-3-yl)-phenoxy]-1H-benzoimidazol-2-ylmethyl]-piperazin-1-yl)-ethanone], in that order: 110 nM and 0.13 nM.

For orientation: IC50 means the concentration that inhibits the measured activity by half.
